Paper PMC9861623, “New Ferulic Acid and Amino Acid Derivatives with Increased Cosmeceutical and Pharmaceutical Potential” (Pharmaceutics, 2022)
“And” between values parts separate entries of the source, which are not always exact repeats. Equal entries are not always repeated. Where two headings read alike, the source gives them in different places.

Assays:
[1] = test system: Murine fibroblasts (L929); experiment: Cytotoxicity, PrestoBlue resazurin-based cell viability assay; conditions: 0.03125–2.0 mM (any dosage), 24 h
Method: The cell biocompatibility was evaluated using a PrestoBlue HS Cell Viability Reagent (Thermo Fisher Scientific, MA USA) based on the reduction of the resazurin to highly fluorescent resorufin, of which the amount is directly correlated to the number of living cells. […] The cells without tested compounds were used as control. The interaction of tested compounds without cells and Prestoblue Reagent (blank wells) was excluded. After 24 h of treatment, optical microscopy imaging of L929 cells was performed using Smart Fluorescent Cell Analyzer Microscope JuLi (Seoul, Korea). Next, the PrestoBlue reagent (10 μL) was added to each well and incubated for 30 min. The fluorescence was measured using a spectrophotometric microplate reader (Infinite 200 Pro, Tecan, Männedorf, Switzerland) at ex/em: 560/594 nm. The readings were acquired from at least three independent experiments (each conducted in triplicate) and normalized to the control (100% viability).

[2] = DPPH antioxidant activity of solution obtained after skin extraction; design: species or system pig; conditions: after 24 h penetration, listed as FA
Method: (§1) To determine the antioxidant capacity of ferulic acid and its derivatives the DPPH method was used. The analyses were performed using the Hitachi UV-Vis Spectrophotometer U-5100 at the wavelength λ = 517 nm. Trolox (6-hydroxy-2,5,7,8-tetramethylchroman-2-carboxylic acid) was used as a reference substance. The antioxidant activity was expressed as %RSA and mmol Trolox dm^−3. […]. Blank samples without antioxidant were prepared in the same way. The tubes were wrapped in aluminum foil and were sealed with a stopper and then incubated for 10 min at room temperature. After this time, spectrophotometric measurements were carried out in triplicate. For determination of antioxidant activity of the acceptor fluid after 24 h of permeation and solutions obtained by extraction of the skin obtained after penetration study, 0.15 mL samples of each solutions were separately added to 2.85 mL of DPPH solution and spectrophotometric measurements were performed. The antioxidant activity was expressed as mmol Trolox·dm^−3.
The accumulation of the FA and its derivatives in the skin after 24 h permeation process through the skin were determined using a modification of the methods described by Janus et al. and Taokaew et al.. After 24 h of permeation experiment, the skin samples were removed from the Franz diffusion cell, washed three times with 0.5% sodium lauryl sulfate solution and dried at room temperature. Next, after cutting out the diffusion area of each skin sample, the samples were immersed in 2 mL of absolute ethanol and continuously stirred at 300 rpm at room temperature for 24 h. The samples were then centrifuged, and clear solutions were collected and analyzed by HPLC method for the determination of FA and its derivatives. The accumulation of the active substance in the skin was calculated by dividing the amount of the drug remaining in the skin by a mass of skin sample and was expressed in mass active substance per mass of the skin (µg g^−1). For solution obtained after skin extraction, the antioxidant activity and total polyphenol content were also determined (as described in Section 2.5.1 and Section 2.5.2).

L929 cells [3] = test system: L929 cells; design: method as in PMID 32485864; conditions: L929, 24 h, highest tested concentration of 2.5–40 mg L^−1, Trypan blue; cited from earlier work
L929 cells [4] = test system: L929 cells; design: method as in PMID 24344870; conditions: L929, 72 h, cited from earlier work
[5] = DPPH radical scavenging assay of the compounds
Method: as §1

NRK-52E cells = test system: NRK-52E cells; design: method as in doi:10.1016/j.jddst.2022.103621; conditions: 75 μM, high glucose environment; cited from earlier work
NIH-3T3 cells = test system: NIH-3T3 cells; design: method as in PMID 29077251; conditions: NIH-3T3, 500 μg mL^−1; cited from earlier work
[6] = Thermogravimetric (TG) analysis, thermal stability; assay type: physicochemical
Method: Samples of 2–5 mg, loaded in aluminium crucibles, were heated from 30 °C to 600 °C at the heating rate of 10 °C·min^−1, in the air atmosphere (25 mL·min^−1) with nitrogen flow (10 mL·min^−1) as the purge gas.

3T3-L1 cells = test system: 3T3-L1 cells; design: method as in PMID 29077251; conditions: 3T3-L1, 500 μg mL^−1; cited from earlier work
L929 cells [7] = test system: L929 cells; design: method as in PMID 32485864; conditions: L929, 24 h, 2.5–40 mg L^−1, MTT assay; cited from earlier work
cancer cells (HepG2) = test system: cancer cells (HepG2); design: method as in PMID 29077251; conditions: HepG2, 500 μg mL^−1; cited from earlier work
[8] = n-octanol/water partition coefficient by shake flask method; assay type: physicochemical; conditions: from log PO/W
Method: The n-octanol/water partition coefficient (log PO/W) was determined for ferulic acid and its derivatives by shake flask method. n-Octanol saturated with water and water saturated with n-octanol were prepared at 25 °C, 24 h prior to their use in the experiments. Then, a sample of 10 mg of compound was weighed with the accuracy of 0.01 mg in a 16 cm^3 screwed vial and dissolved in 5 cm^3 of n-octanol. Next, 5 cm^3 of water was added to the vial. The resulting two-phase mixture was kept in water bath shaker at 25 °C for 2 h and was strongly shaken to reach the partition equilibrium of the compound between the phases. Then the mixture was left unshaken for 30 min and 1.0 cm^3 of water phase was carefully taken out to centrifuge tube. The sample was next centrifuged for 10 min at 7500 rpm at 25 °C to ensure the most precise phase separation. The concentration of compound in water phase was then determined using HPLC method. The partition coefficient, log PO/W was calculated according to the formula: logPO/W=logC0V0−CWVW/CWVW where: C0—initial concentration of the compound in n-octanol, calculated based on the weighed mass of compound, mg·cm^−^3; V0—volume of n-octanol, cm^3; CW—concentration of the compound in water after partition equilibrium, mg·cm^−^3; VW—volume of water, cm^3.

[9] = molar ratio antioxidant:DPPH 0.1, 10 min, listed as FA
[10] = molar ratio antioxidant:DPPH 1.0, 10 min
[11] = molar ratio antioxidant:DPPH 2.0, 10 min, listed as FA

COc1cc(/C=C/C(=O)O)ccc1O [Ferulic acid]
Difference in L929 viability between control and treated cells [1]: No statistically significant differences in viability
DPPH antioxidant activity of the solution obtained after skin extraction ([2]; emulsion): 0.300 ± 0.024 b mmol Trolox dm^−3
DPPH antioxidant activity of the solution obtained after skin extraction ([2]; ethanol solution): 0.394 ± 0.004 mmol Trolox dm^−3 and 0.394 ± 0.004 b mmol Trolox dm^−3
DPPH antioxidant activity of the solution obtained after skin extraction ([2]; hydrogel): 0.381 ± 0.011 mmol Trolox dm^−3 and 0.381 ± 0.011 b mmol Trolox dm^−3
cell viability (L929 cells [3]): 80%
cell viability (L929 cells [4]; 500 μg mL^−1 (2.57 mM)): 67%
cell viability (L929 cells [4]; 1000 μg mL^−1 (5.15 mM)): 28%
Antioxidant activity %RSA [5, 9]: 12.4 ± 0.001 %RSA and 12.4 ± 0.001 a %RSA
Antioxidant activity, Trolox equivalents [5, 9]: 0.049 ± 0.001 mmol Trolox dm^−3 and 0.049 ± 0.001 a mmol Trolox dm^−3
Antioxidant activity %RSA [5, 10]: 73.2 ± 0.001 b %RSA
Antioxidant activity, Trolox equivalents [5, 10]: 0.635 ± 0.001 b mmol Trolox dm^−3
Antioxidant activity %RSA [5, 11]: 86.5 ± 0.001 %RSA and 86.5 ± 0.001 b %RSA
Antioxidant activity, Trolox equivalents [5, 11]: 0.763 ± 0.001 mmol Trolox dm^−3 and 0.763 ± 0.001 b mmol Trolox dm^−3
effect in cultured NRK-52E cells (NRK-52E cells): countered excessive ROS generation, induced autophagy, and inhibited apoptotic death of cells
toxicity on normal cells (NIH-3T3 cells): did not cause any toxicity
Td onset, the onset of decomposition ([6]; TG, air atmosphere, 10 °C·min^−1): 217.0 °C
Td max, temperature of the fastest mass loss of the sample ([6]; TG/DTG, air atmosphere, 10 °C·min^−1): 251.2 °C
Temperature range of decomposition (main weight loss) ([6]; according to the DTG curve): 175–300 °C
toxicity on normal cells (3T3-L1 cells): did not cause any toxicity
effect on cell viability/proliferation (L929 cells [7]): no effect on cell viability/proliferation
viability of cancer cells (cancer cells (HepG2)): significantly decreased the viability
Share of compound partitioned to n-octanol [8]: ~98%
